For assay [1], the target named is T1, Lysine-specific demethylase 2B (Homo sapiens, UniProt Q8NHM5).
T1 sequence (Q8NHM5 whole entry): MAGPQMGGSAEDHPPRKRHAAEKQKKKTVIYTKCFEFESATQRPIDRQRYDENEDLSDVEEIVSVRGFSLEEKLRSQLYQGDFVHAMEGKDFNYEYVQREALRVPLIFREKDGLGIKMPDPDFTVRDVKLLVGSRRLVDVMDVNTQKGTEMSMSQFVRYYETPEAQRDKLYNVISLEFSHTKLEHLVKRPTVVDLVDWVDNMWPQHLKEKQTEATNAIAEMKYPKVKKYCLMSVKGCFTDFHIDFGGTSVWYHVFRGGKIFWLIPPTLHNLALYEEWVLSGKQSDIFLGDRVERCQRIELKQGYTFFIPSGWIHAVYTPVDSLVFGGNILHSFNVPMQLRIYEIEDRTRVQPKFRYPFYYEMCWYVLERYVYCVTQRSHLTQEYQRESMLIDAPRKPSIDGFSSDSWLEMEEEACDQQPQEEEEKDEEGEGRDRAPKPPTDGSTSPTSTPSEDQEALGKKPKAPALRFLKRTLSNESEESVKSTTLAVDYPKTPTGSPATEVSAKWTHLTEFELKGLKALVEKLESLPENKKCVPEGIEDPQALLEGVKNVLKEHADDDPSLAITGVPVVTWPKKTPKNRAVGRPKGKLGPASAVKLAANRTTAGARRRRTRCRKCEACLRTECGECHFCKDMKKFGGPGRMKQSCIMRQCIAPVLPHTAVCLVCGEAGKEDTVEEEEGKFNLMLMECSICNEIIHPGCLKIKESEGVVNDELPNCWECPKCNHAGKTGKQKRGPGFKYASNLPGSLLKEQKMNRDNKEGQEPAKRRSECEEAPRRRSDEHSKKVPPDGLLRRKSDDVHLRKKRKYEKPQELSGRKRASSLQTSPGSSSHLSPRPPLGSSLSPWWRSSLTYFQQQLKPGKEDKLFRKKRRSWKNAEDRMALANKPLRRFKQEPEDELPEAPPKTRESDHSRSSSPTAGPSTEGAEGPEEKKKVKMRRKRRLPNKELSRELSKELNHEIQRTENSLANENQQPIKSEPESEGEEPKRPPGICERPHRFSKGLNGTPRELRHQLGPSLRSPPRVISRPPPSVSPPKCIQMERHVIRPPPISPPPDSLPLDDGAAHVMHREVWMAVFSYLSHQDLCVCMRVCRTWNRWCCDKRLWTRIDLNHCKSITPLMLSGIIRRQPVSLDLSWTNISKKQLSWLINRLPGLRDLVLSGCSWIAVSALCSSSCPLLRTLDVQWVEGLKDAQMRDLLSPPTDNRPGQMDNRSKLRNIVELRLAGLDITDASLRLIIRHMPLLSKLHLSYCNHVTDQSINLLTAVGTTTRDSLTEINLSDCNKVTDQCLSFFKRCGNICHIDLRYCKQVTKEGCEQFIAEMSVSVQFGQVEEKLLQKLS
The assay is described as follows: Inhibition of KDM2B (1 to 650 residues)(unknown origin) by Alphalisa assay.

The target in assay [2] is Lysine-specific demethylase 5A (Homo sapiens, UniProt P29375). The experiment in a line: Inhibition of KDM5A (1 to 1090 residues)(unknown origin) by Alphalisa assay.
Assay [3] has as its target Lysine-specific demethylase 5B (Homo sapiens, UniProt Q9UGL1). The assay is described as follows: Inhibition of KDM5B (1 to 809 residues)(unknown origin) by Alphalisa assay.
Assay [4] deals with Lysine-specific demethylase 5C (Homo sapiens, UniProt P41229). The assay is described as follows: Inhibition of KDM5C (2 to 1560 residues)(unknown origin) by Alphalisa assay. A general note: Bead proximity is the source of the signal in Alpha formats.
Assay [5] concerns the target Histone lysine demethylase PHF8 (Homo sapiens, UniProt Q9UPP1). The experiment in a line: Inhibition of PHF8 (1 to 1024 residues)(unknown origin) by Alphalisa assay.

Sequence of Histone lysine demethylase PHF8 (Q9UPP1 whole entry, the tested form may be a part): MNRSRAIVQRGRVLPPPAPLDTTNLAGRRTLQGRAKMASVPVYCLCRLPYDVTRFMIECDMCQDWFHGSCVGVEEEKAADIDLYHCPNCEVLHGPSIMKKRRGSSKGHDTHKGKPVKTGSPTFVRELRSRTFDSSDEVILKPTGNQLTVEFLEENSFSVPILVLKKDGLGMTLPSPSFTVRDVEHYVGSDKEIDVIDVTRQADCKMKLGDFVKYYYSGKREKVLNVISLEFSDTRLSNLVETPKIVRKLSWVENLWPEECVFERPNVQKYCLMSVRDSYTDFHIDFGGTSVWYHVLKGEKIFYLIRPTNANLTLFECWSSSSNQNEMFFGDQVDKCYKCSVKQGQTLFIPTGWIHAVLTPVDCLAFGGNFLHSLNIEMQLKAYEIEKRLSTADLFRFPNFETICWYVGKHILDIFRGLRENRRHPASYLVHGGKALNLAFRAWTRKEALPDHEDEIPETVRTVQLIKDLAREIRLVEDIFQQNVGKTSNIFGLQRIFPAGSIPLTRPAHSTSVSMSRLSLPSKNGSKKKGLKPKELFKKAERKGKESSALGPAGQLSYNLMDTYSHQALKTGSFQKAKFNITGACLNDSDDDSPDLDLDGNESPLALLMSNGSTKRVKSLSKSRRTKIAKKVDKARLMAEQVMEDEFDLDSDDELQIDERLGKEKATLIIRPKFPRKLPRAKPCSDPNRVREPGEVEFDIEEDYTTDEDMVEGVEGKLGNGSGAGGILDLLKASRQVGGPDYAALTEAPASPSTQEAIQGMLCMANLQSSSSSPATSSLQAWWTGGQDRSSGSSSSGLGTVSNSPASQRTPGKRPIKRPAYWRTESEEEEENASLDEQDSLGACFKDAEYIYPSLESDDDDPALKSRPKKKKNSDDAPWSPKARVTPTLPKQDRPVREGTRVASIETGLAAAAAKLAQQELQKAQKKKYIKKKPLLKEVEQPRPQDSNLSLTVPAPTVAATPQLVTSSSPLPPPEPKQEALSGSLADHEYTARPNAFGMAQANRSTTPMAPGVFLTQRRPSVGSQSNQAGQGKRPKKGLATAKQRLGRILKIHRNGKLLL
Sequence of Lysine-specific demethylase 5B (Q9UGL1 whole entry, the tested form may be a part): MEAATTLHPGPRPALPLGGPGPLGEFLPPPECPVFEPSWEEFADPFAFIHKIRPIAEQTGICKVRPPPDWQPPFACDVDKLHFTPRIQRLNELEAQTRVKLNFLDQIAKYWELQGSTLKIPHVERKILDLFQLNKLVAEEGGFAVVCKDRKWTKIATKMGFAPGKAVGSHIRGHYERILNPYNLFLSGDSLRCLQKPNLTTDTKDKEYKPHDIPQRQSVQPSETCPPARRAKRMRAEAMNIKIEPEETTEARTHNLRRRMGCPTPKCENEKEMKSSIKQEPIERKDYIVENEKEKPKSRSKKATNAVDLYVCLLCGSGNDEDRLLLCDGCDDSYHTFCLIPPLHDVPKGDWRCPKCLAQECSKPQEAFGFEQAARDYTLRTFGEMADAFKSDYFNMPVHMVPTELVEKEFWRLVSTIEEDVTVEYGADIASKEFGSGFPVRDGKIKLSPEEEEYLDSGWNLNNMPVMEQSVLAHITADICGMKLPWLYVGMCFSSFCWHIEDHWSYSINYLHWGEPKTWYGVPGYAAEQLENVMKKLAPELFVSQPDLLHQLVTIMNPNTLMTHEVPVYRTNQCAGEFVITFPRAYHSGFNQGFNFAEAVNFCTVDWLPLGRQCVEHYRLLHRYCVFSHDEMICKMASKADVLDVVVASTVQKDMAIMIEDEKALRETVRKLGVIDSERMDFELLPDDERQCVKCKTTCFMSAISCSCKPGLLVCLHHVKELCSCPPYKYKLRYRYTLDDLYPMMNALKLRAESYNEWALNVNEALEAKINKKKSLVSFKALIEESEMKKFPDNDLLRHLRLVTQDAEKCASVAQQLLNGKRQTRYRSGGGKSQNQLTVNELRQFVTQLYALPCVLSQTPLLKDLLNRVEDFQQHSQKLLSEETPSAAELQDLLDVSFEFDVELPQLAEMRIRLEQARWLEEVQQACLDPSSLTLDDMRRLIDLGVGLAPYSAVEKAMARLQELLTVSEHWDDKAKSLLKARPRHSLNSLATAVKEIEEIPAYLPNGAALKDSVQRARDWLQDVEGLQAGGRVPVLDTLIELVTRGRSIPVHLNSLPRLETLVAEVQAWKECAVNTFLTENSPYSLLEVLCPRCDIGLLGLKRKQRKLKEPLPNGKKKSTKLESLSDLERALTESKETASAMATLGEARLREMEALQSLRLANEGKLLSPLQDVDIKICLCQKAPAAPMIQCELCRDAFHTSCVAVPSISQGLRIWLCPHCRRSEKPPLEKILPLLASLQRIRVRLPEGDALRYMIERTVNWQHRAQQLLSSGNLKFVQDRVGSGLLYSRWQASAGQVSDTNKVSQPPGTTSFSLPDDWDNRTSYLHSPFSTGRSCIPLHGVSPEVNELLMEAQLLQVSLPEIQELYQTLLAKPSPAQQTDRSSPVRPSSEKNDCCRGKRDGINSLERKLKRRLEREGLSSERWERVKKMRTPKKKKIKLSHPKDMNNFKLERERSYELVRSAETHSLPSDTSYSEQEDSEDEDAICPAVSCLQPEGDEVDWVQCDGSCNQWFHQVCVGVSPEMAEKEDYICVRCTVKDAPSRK
Sequence of Lysine-specific demethylase 5A (P29375 whole entry, the tested form may be a part): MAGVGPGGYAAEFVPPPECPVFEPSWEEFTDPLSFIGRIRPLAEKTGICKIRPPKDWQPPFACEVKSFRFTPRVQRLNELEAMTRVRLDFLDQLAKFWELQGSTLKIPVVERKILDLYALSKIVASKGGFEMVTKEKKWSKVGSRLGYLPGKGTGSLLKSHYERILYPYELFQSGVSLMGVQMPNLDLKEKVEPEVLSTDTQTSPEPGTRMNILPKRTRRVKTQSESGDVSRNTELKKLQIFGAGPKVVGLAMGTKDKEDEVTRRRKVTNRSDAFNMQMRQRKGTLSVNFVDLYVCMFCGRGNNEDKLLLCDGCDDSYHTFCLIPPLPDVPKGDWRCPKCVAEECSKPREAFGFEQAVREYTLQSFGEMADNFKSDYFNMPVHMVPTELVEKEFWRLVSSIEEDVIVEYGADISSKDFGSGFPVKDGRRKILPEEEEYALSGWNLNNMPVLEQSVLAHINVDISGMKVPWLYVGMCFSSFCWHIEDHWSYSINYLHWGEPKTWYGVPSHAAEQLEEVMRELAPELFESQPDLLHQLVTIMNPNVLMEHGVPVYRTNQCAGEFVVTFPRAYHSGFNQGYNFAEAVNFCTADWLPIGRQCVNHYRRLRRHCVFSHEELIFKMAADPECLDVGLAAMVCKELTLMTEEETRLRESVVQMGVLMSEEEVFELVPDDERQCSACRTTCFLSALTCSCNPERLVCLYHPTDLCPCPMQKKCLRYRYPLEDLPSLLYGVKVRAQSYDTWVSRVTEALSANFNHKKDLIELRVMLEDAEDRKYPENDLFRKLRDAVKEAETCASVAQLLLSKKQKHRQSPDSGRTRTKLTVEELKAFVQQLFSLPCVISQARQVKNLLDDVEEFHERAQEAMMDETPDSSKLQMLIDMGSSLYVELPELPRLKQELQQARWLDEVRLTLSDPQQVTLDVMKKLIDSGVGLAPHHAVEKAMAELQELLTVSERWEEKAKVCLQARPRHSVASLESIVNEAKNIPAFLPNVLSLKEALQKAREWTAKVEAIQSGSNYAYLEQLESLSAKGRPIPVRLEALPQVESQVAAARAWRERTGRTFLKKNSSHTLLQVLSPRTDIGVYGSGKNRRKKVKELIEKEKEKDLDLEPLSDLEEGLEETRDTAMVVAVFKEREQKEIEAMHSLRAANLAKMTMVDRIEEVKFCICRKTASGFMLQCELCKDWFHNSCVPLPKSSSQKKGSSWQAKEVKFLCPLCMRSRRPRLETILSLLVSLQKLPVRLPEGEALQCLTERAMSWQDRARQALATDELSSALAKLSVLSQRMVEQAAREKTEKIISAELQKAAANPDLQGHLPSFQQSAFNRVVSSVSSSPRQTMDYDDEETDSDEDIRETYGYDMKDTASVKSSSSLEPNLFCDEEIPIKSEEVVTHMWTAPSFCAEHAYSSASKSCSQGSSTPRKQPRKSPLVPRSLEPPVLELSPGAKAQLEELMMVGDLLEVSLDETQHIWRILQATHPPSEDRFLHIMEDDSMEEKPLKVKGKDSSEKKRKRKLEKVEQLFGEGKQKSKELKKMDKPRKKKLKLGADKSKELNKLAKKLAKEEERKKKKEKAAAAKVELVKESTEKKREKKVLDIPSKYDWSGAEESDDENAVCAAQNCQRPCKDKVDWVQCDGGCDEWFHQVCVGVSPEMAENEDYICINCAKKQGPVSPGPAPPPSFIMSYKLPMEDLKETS

Turning to `O=C(O)CCNc1cc(N2CCc3ccccc3CC2)nc(-c2cccnc2)n1`, the IC50 (in general, the concentration that gives 50% inhibition) in assay [1] was 8.3 µM; in assay [2], greater than 20 µM; in assay [3], 33 µM; in assay [4] it was greater than 75 µM; in assay [5], 17 µM.
For the compound `CCOC(=O)CCNc1cc(N2CCc3ccccc3CC2)nc(-c2cccnc2)n1`, the concentration for half-maximal inhibition (IC50) in assay [1] is 24 µM; in assay [2] it was greater than 50 µM; in assay [3] it was greater than 25 µM; in assay [5] it was greater than 25 µM.
